Reference: US10501425B2, “Microbiocidal oxadiazole derivatives” (SYNGENTA PARTICIPATIONS AG, priority 2015, dated 2019)

What was measured:
[1] = system: Puccinia recondita f. Sp. Tritici; assay: Puccinia recondita f. sp. tritici / wheat / leaf disc preventative (brown rust); format: in vivo; conditions: foliar, 200 ppm in the applied formulation, wheat leaf segments cv. Kanzler, preventative (inoculated 1 day after application), compared to untreated, read-out: disease control
Procedure: Leaf disks or leaf segments of various plant species are cut from plants grown in a greenhouse. The cut leaf disks or segments are placed in multiwell plates (24-well format) onto water agar. The leaf disks are sprayed with a test solution before (preventative) or after (curative) inoculation. Compounds to be tested are prepared as DMSO solutions (max. 10 mg/ml) which are diluted to the appropriate concentration with 0.025% Tween20 just before spraying. The inoculated leaf disks or segments are incubated under defined conditions (temperature, relative humidity, light, etc.) according to the respective test system. A single evaluation of disease level is carried out 3 to 14 days after inoculation, depending on the pathosystem. Percent disease control relative to the untreated check leaf disks or segments is then calculated. Wheat leaf segments cv. Kanzler were placed on agar in multiwell plates (24-well format) and sprayed with the formulated test compound diluted in water. The leaf disks were inoculated with a spore suspension of the fungus 1 day after application. The inoculated leaf segments were incubated at 19° C. and 75% relative humidity (rh) under a light regime of 12 hours light/12 hours darkness in a climate cabinet and the activity of a compound was assessed as percent disease control compared to untreated when an appropriate level of disease damage appears in untreated check leaf segments (7 to 9 days after application). The following compounds at 200 ppm in the applied formulation give at least 80% disease control in this test when compared to untreated control leaf disks under the same conditions, which show extensive disease development.

[2] = system: Puccinia recondita f. Sp. Tritici; assay: Puccinia recondita f. sp. tritici / wheat / leaf disc curative (brown rust); format: in vivo; conditions: foliar, 24 h, 200 ppm in the applied formulation, wheat leaf segments cv. Kanzler, curative (applied 1 day after inoculation), compared to untreated, read-out: disease control
Procedure: (§1) Leaf disks or leaf segments of various plant species are cut from plants grown in a greenhouse. The cut leaf disks or segments are placed in multiwell plates (24-well format) onto water agar. The leaf disks are sprayed with a test solution before (preventative) or after (curative) inoculation. Compounds to be tested are prepared as DMSO solutions (max. 10 mg/ml) which are diluted to the appropriate concentration with 0.025% Tween20 just before spraying. The inoculated leaf disks or segments are incubated under defined conditions (temperature, relative humidity, light, etc.) according to the respective test system. A single evaluation of disease level is carried out 3 to 14 days after inoculation, depending on the pathosystem. Percent disease control relative to the untreated check leaf disks or segments is then calculated.
Wheat leaf segments cv. Kanzler are placed on agar in multiwell plates (24-well format). The leaf segments are then inoculated with a spore suspension of the fungus. Plates were stored in darkness at 19° C. and 75% relative humidity. The formulated test compound diluted in water was applied 1 day after inoculation. The leaf segments were incubated at 19° C. and 75% relative humidity under a light regime of 12 hours light/12 hours darkness in a climate cabinet and the activity of a compound was assessed as percent disease control compared to untreated when an appropriate level of disease damage appears in untreated check leaf segments (6 to 8 days after application).
(§2) The following compounds at 200 ppm in the applied formulation give at least 80% disease control in this test when compared to untreated control leaf disks under the same conditions, which show extensive disease development.

[3] = system: Phakopsora pachyrhizi; assay: Phakopsora pachyrhizi / soybean / leaf disc preventative (Asian soybean rust); format: in vivo; conditions: foliar, 200 ppm in the applied formulation, soybean leaf disks, compared to untreated, read-out: disease control
Procedure: as §1
Soybean leaf disks are placed on water agar in multiwell plates (24-well format) and sprayed with the formulated test compound diluted in water. One day after application leaf discs are inoculated by spraying a spore suspension on the lower leaf surface. After an incubation period in a climate cabinet of 24-36 hours in darkness at 20° C. and 75% rh leaf disc are kept at 20° C. with 12 h light/day and 75% rh. The activity of a compound is assessed as percent disease control compared to untreated when an appropriate level of disease damage appears in untreated check leaf disks (12 to 14 days after application).
as §2

[4] = system: Glomerella lacenarium (Colletotrichum lagenarium); assay: Glomerella lagenarium liquid culture / cucumber / preventative (anthracnose); format: cell-based; conditions: Colletotrichum orbiculare; 20 ppm in the applied formulation; liquid culture (PDB), growth inhibition measured photometrically 3 to 4 days after application; compared to untreated; read-out: disease control
Procedure: Mycelia fragments or conidia suspensions of a fungus prepared either freshly from liquid cultures of the fungus or from cryogenic storage, are directly mixed into nutrient broth. DMSO solutions of the test compound (max. 10 mg/ml) are diluted with 0.025% Tween20 by a factor of 50 and 10 μl of this solution is pipetted into a microtiter plate (96-well format). The nutrient broth containing the fungal spores/mycelia fragments is then added to give an end concentration of the tested compound. The test plates are incubated in the dark at 24° C. and 96% relative humidity. The inhibition of fungal growth is determined photometrically after 2 to 7 days, depending on the pathosystem, and percent antifungal activity relative to the untreated check is calculated.
Conidia of the fungus from cryogenic storage are directly mixed into nutrient broth (PDB—potato dextrose broth). After placing a (DMSO) solution of test compound into a microtiter plate (96-well format), the nutrient broth containing the fungal spores is added.
The following compounds at 20 ppm in the applied formulation give at least 80% disease control in this test when compared to untreated control under the same conditions, which show extensive disease development.

CCCC(C)(C)C(=O)NCc1ccc(-c2noc(C(F)(F)F)n2)cc1 [Compound 1.4, 2,2-dimethyl-N-[[4-[5-(trifluoromethyl)-1,2,4-oxadiazol-3-yl]phenyl]methyl]pentanamide]
≥ 80%: pest or weed control at 200 ppm [1] | pest or weed control at 200 ppm [2] | pest or weed control at 200 ppm [3] | inhibition of growth at 20 ppm [4]

CC(C)C(=O)NCc1ccc(-c2noc(C(F)(F)F)n2)cc1 [Compound 1.6, 2-methyl-N-[[4-[5-(trifluoromethyl)-1,2,4-oxadiazol-3-yl]phenyl]methyl]propanamide]
≥ 80%: pest or weed control at 200 ppm [1] | pest or weed control at 200 ppm [2] | pest or weed control at 200 ppm [3] | inhibition of growth at 20 ppm [4]

C=CCCC(=O)NCc1ccc(-c2noc(C(F)(F)F)n2)cc1 [Compound 1.7, N-[[4-[5-(trifluoromethyl)-1,2,4-oxadiazol-3-yl]phenyl]methyl]pent-4-enamide]
≥ 80%: pest or weed control at 200 ppm [1] | pest or weed control at 200 ppm [2] | pest or weed control at 200 ppm [3] | inhibition of growth at 20 ppm [4]

CCCCCC(=O)NCc1ccc(-c2noc(C(F)(F)F)n2)cc1 [Compound 1.8, N-[[4-[5-(trifluoromethyl)-1,2,4-oxadiazol-3-yl]phenyl]methyl]hexanamide]
≥ 80%: pest or weed control at 200 ppm [1] | pest or weed control at 200 ppm [2] | pest or weed control at 200 ppm [3] | inhibition of growth at 20 ppm [4]

CC(=O)CC(C)C(=O)NCc1ccc(-c2noc(C(F)(F)F)n2)cc1 (stereo not drawn) [Compound 1.9, 2-methyl-4-oxo-N-[[4-[5-(trifluoromethyl)-1,2,4-oxadiazol-3-yl]phenyl]methyl]pentanamide]
≥ 80%: pest or weed control at 200 ppm [1] | pest or weed control at 200 ppm [2] | pest or weed control at 200 ppm [3] | inhibition of growth at 20 ppm [4]

CCCC(=O)NCc1ccc(-c2noc(C(F)(F)F)n2)cc1 [Compound 1.10, N-[[4-[5-(trifluoromethyl)-1,2,4-oxadiazol-3-yl]phenyl]methyl]butanamide]
≥ 80%: pest or weed control at 200 ppm [1] | pest or weed control at 200 ppm [2] | pest or weed control at 200 ppm [3] | inhibition of growth at 20 ppm [4]

CC(C)CC(=O)NCc1ccc(-c2noc(C(F)(F)F)n2)cc1 [Compound 1.12, 3-methyl-N-[[4-[5-(trifluoromethyl)-1,2,4-oxadiazol-3-yl]phenyl]methyl]butanamide]
≥ 80%: pest or weed control at 200 ppm [1] | pest or weed control at 200 ppm [2] | pest or weed control at 200 ppm [3] | inhibition of growth at 20 ppm [4]

CCC(C)C(=O)NCc1ccc(-c2noc(C(F)(F)F)n2)c(F)c1F (stereo not drawn) [Compound 1.59, N-[[2,3-difluoro-4-[5-(trifluoromethyl)-1,2,4-oxadiazol-3-yl]phenyl]methyl]-2-methyl-butanamide]
≥ 80%: pest or weed control at 200 ppm [1] | pest or weed control at 200 ppm [3] | inhibition of growth at 20 ppm [4]

CC(=O)NCC(=O)NCCc1ccc(-c2noc(C(F)(F)F)n2)cc1 [Compound 1.82, 2-acetamido-N-[2-[4-[5-(trifluoromethyl)-1,2,4-oxadiazol-3-yl]phenyl]ethyl]acetamide]
≥ 80%: pest or weed control at 200 ppm [3]

CC(CO)(CCl)C(=O)NCCc1ccc(-c2noc(C(F)(F)F)n2)cc1 (stereo not drawn) [Compound 1.88, 2-(chloromethyl)-3-hydroxy-2-methyl-N-[2-[4-[5-(trifluoromethyl)-1,2,4-oxadiazol-3-yl]phenyl]ethyl]propanamide]
≥ 80%: pest or weed control at 200 ppm [3] | inhibition of growth at 20 ppm [4]

O=C(CC(F)(F)F)NCCc1ccc(-c2noc(C(F)(F)F)n2)cc1 [Compound 1.91, 3,3,3-trifluoro-N-[2-[4-[5-(trifluoromethyl)-1,2,4-oxadiazol-3-yl]phenyl]ethyl]propanamide]
≥ 80%: pest or weed control at 200 ppm [1] | pest or weed control at 200 ppm [3] | inhibition of growth at 20 ppm [4]

CC#CCOC(=O)NCc1ccc(-c2noc(C(F)(F)F)n2)cc1 [Compound 2.7, but-2-ynyl N-[[4-[5-(trifluoromethyl)-1,2,4-oxadiazol-3-yl]phenyl]methyl]carbamate]
≥ 80%: pest or weed control at 200 ppm [1] | pest or weed control at 200 ppm [3]

O=C(NCc1ccc(-c2noc(C(F)(F)F)n2)cn1)OCCCCl [Compound 2.31, 3-chloropropyl N-[[5-[5-(trifluoromethyl)-1,2,4-oxadiazol-3-yl]-2-pyridyl]methyl]carbamate]
≥ 80%: pest or weed control at 200 ppm [1] | pest or weed control at 200 ppm [2] | inhibition of growth at 20 ppm [4]

CCOC(=O)NCc1ccc(-c2noc(C(F)(F)F)n2)cn1 [Compound 2.32, ethyl N-[[5-[5-(trifluoromethyl)-1,2,4-oxadiazol-3-yl]-2-pyridyl]methyl]carbamate]
≥ 80%: pest or weed control at 200 ppm [1] | pest or weed control at 200 ppm [2] | inhibition of growth at 20 ppm [4]

O=C(NCc1ccc(-c2noc(C(F)(F)F)n2)cn1)OCCCl [Compound 2.33, 2-chloroethyl N-[[5-[5-(trifluoromethyl)-1,2,4-oxadiazol-3-yl]-2-pyridyl]methyl]carbamate]
≥ 80%: pest or weed control at 200 ppm [1] | pest or weed control at 200 ppm [2] | inhibition of growth at 20 ppm [4]

C#CCOC(=O)NCc1ccc(-c2noc(C(F)(F)F)n2)cn1 [Compound 2.35, prop-2-ynyl N-[[5-[5-(trifluoromethyl)-1,2,4-oxadiazol-3-yl]-2-pyridyl]methyl]carbamate]
≥ 80%: pest or weed control at 200 ppm [1] | pest or weed control at 200 ppm [2] | inhibition of growth at 20 ppm [4]

CCC(C)NC(=O)NCc1ccc(-c2noc(C(F)(F)F)n2)cc1 (stereo not drawn) [Compound 3.7, 1-sec-butyl-3-[[4-[5-(trifluoromethyl)-1,2,4-oxadiazol-3-yl]phenyl]methyl]urea]
≥ 80%: pest or weed control at 200 ppm [1] | pest or weed control at 200 ppm [3] | inhibition of growth at 20 ppm [4]

CC(C)(C)NC(=O)NCc1ccc(-c2noc(C(F)(F)F)n2)cc1 [Compound 3.15, 1-tert-butyl-3-[[4-[5-(trifluoromethyl)-1,2,4-oxadiazol-3-yl]phenyl]methyl]urea]
≥ 80%: pest or weed control at 200 ppm [1] | pest or weed control at 200 ppm [2] | inhibition of growth at 20 ppm [4]
